Experiment: Metabolic stability in the presence of human hepatic microsomes
Assay type: in vitro ADME
Details: compound 1 μM (DMSO 0.1%), microsomal protein 0.5 mg/mL, LC/MS/MS
Description: This is illustrated more particularly by the test of metabolic stability in the presence of human hepatic microsomes presented below.
Human hepatic microsomes (Becton Dickinson) are incubated at a protein concentration of 0.5 mg/mL in the reaction mixture.
The reaction mixture of the microsomes consists of phosphate buffer pH: 7.4 at 100 mM, MgCl2 at 100 mM (50/50), a system for generating […] consisting of a mixture of nicotinamide adenine […] (NADP), glucose-6-phosphate (G6P) at 1 mg/mL and glucose-6-phosphate dehydrogenase (G6PDH) at 4 U/mL. The compounds are tested at 1 μM (DMSO 0.1%).
The samples are taken from the incubation medium after adding the microsomes, at time 15 minutes. The metabolic reaction is stopped by adding methanol (1 volume incubation medium/3 volumes of methanol). The percentage of the parent product remaining after 15 minutes is measured by LC/MS/MS analysis.

## COCC(COC)n1c(=O)c(-c2cccc(F)c2Cl)cn(CC(=O)N2CCC(N3CCc4cc(OC)ccc4NC3=O)CC2)c1=O [Compound 232, 5-(2-chloro-3-fluorophenyl)-3-[2-methoxy-1-(methoxymethyl)ethyl]-1-[2-[4-(7-methoxy-2-oxo-4,5-dihydro-1H-1,3-benzodiazepin-3-yl)-1-piperidyl]-2-oxo-ethyl]pyrimidine-2,4-dione]
  % of product remaining at 15 min (human hepatic microsomes): 1%

## CC[C@H](C)n1c(=O)c(-c2cccc(F)c2Cl)cn(CC(=O)N2CCC(N3CCc4cc(OC)ccc4NC3=O)CC2)c1=O [Compound 237, 5-(2-chloro-3-fluorophenyl)-1-[2-[4-(7-methoxy-2-oxo-4,5-dihydro-1H-1,3-benzodiazepin-3-yl)-1-piperidyl]-2-oxo-ethyl]-3-[(1S)-1-methylpropyl]pyrimidine-2,4-dione]
  % of product remaining at 15 min (human hepatic microsomes): 3%

## COc1ccc2c(c1)CCN(C1CCN(C(=O)Cn3cc(-c4cccc(F)c4Cl)c(=O)n(CC(C)(C)OC)c3=O)CC1)C(=O)N2 [Compound 240, 5-(2-chloro-3-fluorophenyl)-3-(2-methoxy-2-methylpropyl)-1-[2-[4-(7-methoxy-2-oxo-4,5-dihydro-1H-1,3-benzodiazepin-3-yl)-1-piperidyl]-2-oxo-ethyl]pyrimidine-2,4-dione]
  % of product remaining at 15 min (human hepatic microsomes): 0%

## COc1ccc2c(c1)CCN(C1CCN(C(=O)Cn3cc(-c4cccc(F)c4Cl)c(=O)n(CCn4cnnc4)c3=O)CC1)C(=O)N2 [Compound 251, 5-(2-chloro-3-fluorophenyl)-1-[2-[4-(7-methoxy-2-oxo-4,5-dihydro-1H-1,3-benzodiazepin-3-yl)-1-piperidyl]-2-oxo-ethyl]-3-[2-(1,2,4-triazol-4-yl)ethyl]pyrimidine-2,4-dione]
  % of product remaining at 15 min (human hepatic microsomes): 4%

## O=C(CN1C(=O)C2(CCCC2)NC[C@H]1c1cc(F)cc(F)c1)Nc1ccc2c(c1)C[C@@]1(C2)C(=O)Nc2ncccc21 [MK-3207, reference compound]
  % of product remaining at 15 min (human hepatic microsomes): 100%

## NCCCC[C@H](NC(=O)[C@@H](Cc1cc(Br)c(O)c(Br)c1)NC(=O)N1CCC(N2Cc3ccccc3NC2=O)CC1)C(=O)N1CCN(c2ccncc2)CC1 [Olcegepant, olcegepant, reference compound]
  % of product remaining at 15 min (human hepatic microsomes): 100%

## O=C(N[C@@H]1CC[C@@H](c2cccc(F)c2F)CN(CC(F)(F)F)C1=O)N1CCC(n2c(=O)[nH]c3ncccc32)CC1 [Telcagepant, telcagepant, reference compound]
  % of product remaining at 15 min (human hepatic microsomes): 100%

From patent US10246422B2, “Heterocyclic compounds and use thereof in medicine and in cosmetics” (GALDERMA RESEARCH & DEVELOPMENT, priority 2014, dated 2019)
